# Activity calls are given as the source filed them.
# Key:
# [1] = target: T1, Tyrosine-protein phosphatase non-receptor type 7 (Homo sapiens, UniProt P35236); format: functional
# T1 sequence (P35236 whole entry): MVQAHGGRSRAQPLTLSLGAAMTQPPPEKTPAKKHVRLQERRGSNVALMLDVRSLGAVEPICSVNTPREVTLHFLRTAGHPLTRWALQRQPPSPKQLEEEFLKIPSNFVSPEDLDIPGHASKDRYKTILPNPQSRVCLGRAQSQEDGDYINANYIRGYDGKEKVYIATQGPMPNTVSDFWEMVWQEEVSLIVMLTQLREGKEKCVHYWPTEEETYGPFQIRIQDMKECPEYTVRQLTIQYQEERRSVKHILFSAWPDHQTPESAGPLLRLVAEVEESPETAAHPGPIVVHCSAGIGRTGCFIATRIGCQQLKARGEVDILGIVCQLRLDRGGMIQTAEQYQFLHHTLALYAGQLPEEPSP
# [2] = target: T2, Tyrosine-protein phosphatase non-receptor type 22 (Homo sapiens, UniProt Q9Y2R2); format: functional
# T2 sequence (Q9Y2R2 whole entry): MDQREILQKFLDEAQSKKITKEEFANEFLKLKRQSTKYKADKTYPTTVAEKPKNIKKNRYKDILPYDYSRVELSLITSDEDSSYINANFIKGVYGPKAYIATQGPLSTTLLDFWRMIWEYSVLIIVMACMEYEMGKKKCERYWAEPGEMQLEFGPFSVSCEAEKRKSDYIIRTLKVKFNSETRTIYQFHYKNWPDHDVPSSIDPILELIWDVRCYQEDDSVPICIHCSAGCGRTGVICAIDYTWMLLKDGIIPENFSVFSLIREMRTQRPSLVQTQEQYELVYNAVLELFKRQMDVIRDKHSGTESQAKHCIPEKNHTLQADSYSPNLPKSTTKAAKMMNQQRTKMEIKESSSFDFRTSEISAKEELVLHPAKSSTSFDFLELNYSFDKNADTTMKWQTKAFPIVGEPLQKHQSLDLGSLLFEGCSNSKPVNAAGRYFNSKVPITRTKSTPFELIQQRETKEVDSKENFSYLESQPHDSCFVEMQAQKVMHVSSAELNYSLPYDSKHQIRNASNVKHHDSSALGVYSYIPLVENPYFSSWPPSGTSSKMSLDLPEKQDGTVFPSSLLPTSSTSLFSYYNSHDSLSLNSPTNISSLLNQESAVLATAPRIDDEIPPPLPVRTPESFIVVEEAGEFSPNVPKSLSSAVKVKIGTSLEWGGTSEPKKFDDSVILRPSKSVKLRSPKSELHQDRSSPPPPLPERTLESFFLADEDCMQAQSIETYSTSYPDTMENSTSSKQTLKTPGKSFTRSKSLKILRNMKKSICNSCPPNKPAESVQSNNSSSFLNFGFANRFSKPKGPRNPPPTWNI
# [3] = target: T2, Tyrosine-protein phosphatase non-receptor type 22; format: functional; remark: listed apart in the source
# Phospholipase A2 = Phospholipase A2 (Homo sapiens, UniProt P04054); experiment: PLA2 enzyme inhibitors, dose response, counter-screen for ATG4B inhibitor project, biochemical, set 2 (AID 588586); format: functional
# Cysteine protease ATG4B = target: T3, Cysteine protease ATG4B (Homo sapiens, UniProt Q9Y4P1); experiment: ATG4B protease inhibitors, dose response, biochemical, fluorescence, set 2 (AID 588584); format: functional
# T3 sequence (Q9Y4P1 whole entry): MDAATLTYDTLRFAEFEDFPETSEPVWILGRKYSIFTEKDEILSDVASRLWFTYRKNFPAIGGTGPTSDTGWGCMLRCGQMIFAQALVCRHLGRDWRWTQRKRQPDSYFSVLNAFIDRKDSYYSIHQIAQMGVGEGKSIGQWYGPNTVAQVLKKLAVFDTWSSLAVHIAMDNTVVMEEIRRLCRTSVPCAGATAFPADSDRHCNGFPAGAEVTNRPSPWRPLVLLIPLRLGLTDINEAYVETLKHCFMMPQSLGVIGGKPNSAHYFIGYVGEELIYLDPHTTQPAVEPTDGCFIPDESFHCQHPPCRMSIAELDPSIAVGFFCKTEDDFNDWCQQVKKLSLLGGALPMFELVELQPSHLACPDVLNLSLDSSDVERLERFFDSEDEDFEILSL
# [4] = target: 5-hydroxytryptamine receptor 5A (Homo sapiens, UniProt P47898); experiment: Counterscreen for agonists of OPRM1-OPRD1 heterodimerization: luminescence-based cell-based high throughput dose response assay to identify agonists of 5-hydroxytryptamine (serotonin) 5A receptor (HTR5A). [Related pubchem assays (depositor defined):AID504326, AID504355, AID504692, AID504904, AID504905]; format: functional
# Mu-type opioid receptor = Mu-type opioid receptor (Homo sapiens, UniProt P35372); experiment: (§1) Counterscreen for agonists of heterodimerization of the mu 1 (OPRM1) and delta 1 (OPRD1) opioid receptors: Luminescence-based cell-based high throughput dose response assay to identify agonists of OPRM1 homodimerization.; format: functional
# [5] = target: Delta-type opioid receptor (Homo sapiens, UniProt P41143); experiment: as §1, with “of OPRD1” for “of OPRM1”, “homodimerization. [Related pubchem assays (depositor defined):AID504326, AID504355, AID504692, AID504904, AID504905]” for “homodimerization.”; format: functional
# [6] = target: T4, Sentrin-specific protease 7 (Homo sapiens, UniProt Q9BQF6); format: functional;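 also: Luminescence-based dose-response confirmation of ultra-high-throughput screening hits, measuring inhibition of SENP7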
# T4 sequence (Q9BQF6 whole entry): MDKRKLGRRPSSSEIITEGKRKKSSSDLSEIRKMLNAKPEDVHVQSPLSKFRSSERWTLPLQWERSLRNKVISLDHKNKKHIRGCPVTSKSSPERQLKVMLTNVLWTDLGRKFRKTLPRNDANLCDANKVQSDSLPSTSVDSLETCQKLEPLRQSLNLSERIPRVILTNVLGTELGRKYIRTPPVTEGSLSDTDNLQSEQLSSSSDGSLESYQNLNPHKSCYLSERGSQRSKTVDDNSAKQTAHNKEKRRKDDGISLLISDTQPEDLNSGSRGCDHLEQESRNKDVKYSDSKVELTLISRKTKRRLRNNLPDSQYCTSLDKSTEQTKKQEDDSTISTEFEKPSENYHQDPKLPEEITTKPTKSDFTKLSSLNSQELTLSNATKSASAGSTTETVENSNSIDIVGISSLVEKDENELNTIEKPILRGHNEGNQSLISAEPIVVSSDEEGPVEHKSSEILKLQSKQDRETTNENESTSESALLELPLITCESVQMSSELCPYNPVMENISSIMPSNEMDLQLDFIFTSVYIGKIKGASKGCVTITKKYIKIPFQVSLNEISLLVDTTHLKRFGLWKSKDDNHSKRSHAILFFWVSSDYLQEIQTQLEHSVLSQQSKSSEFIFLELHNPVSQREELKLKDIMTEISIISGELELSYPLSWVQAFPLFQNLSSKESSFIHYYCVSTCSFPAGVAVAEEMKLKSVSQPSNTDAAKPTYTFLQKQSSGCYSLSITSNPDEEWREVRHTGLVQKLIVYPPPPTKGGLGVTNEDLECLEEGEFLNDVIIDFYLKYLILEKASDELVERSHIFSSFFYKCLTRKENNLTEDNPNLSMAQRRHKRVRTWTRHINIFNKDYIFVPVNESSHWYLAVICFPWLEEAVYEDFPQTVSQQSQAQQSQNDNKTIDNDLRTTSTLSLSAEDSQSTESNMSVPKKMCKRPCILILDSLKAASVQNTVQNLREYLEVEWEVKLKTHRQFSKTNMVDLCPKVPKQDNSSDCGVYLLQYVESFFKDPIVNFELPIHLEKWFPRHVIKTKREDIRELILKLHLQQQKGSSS
# [7] = target: T5, Sentrin-specific protease 6 (Homo sapiens, UniProt Q9GZR1); format: functional;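 also: Luminescence-based dose-response confirmatory assay of SENP6 inhibition, following up an ultra-high-throughput screen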
# T5 sequence (Q9GZR1 whole entry): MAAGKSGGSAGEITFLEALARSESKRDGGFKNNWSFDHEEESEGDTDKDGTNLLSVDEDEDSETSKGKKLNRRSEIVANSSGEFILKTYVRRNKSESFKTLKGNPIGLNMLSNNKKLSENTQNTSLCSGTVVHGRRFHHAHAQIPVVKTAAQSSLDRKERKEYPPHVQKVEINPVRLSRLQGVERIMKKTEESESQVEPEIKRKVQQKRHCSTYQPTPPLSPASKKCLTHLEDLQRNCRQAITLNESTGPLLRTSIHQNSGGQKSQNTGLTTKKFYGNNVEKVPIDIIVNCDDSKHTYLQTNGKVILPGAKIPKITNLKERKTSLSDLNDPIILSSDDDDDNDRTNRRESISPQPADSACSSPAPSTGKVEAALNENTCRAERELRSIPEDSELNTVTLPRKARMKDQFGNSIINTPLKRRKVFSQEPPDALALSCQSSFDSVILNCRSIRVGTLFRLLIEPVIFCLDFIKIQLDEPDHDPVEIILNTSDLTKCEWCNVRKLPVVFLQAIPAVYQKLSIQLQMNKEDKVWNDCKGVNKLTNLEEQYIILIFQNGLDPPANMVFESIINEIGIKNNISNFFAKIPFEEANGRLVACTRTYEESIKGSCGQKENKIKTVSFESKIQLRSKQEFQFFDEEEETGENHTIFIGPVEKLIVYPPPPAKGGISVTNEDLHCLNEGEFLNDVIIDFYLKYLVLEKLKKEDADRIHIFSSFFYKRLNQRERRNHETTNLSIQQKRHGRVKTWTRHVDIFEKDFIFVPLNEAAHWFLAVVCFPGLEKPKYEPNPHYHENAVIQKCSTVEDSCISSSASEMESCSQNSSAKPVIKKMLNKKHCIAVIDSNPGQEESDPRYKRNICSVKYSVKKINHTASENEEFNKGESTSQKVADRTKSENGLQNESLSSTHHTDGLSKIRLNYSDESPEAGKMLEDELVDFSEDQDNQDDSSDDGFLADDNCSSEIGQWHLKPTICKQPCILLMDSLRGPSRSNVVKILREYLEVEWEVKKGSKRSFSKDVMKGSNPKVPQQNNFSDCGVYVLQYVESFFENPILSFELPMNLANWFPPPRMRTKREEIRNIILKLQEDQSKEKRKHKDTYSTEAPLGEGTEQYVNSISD
# [8] = test system: Streptococcus sp. 'group A'; experiment: growth inhibition of control SK(-) GAS strain, dose response, counter-screen for streptokinase expression inhibitor project, luminescence, kanamycin, BacTiterGlo, confirmation (AID 1900); format: functional, organism-based
# Streptococcus = experiment: Group A Streptococcus viability loss, dose response, counter-screen for streptokinase expression inhibitor project, luminescence, BacTiterGlo (AID 1915); format: functional, organism-based;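 also: potency for reduction of bacterial viability or growth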
# Caspase-3 = target: T6, Caspase-3 (Homo sapiens, UniProt P42574); format: functional;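 also: Dose-response selectivity test against caspase-3 for candidate inhibitors of sentrin-specific proteases (SENPs)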
# T6 sequence (P42574 whole entry): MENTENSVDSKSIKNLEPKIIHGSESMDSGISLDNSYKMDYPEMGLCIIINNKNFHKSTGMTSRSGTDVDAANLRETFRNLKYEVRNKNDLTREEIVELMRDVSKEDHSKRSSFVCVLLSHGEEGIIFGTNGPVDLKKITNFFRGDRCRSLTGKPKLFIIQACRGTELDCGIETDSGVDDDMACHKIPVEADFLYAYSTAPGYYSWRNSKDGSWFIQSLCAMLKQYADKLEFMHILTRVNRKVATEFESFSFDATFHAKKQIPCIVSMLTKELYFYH
# [9] = target: T7, Sentrin-specific protease 8 (Homo sapiens, UniProt Q96LD8); format: functional;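 also: luminescence read-out of SENP8 inhibition, dose-response confirmation following an ultra-high-throughput screen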
# T7 sequence (Q96LD8 whole entry): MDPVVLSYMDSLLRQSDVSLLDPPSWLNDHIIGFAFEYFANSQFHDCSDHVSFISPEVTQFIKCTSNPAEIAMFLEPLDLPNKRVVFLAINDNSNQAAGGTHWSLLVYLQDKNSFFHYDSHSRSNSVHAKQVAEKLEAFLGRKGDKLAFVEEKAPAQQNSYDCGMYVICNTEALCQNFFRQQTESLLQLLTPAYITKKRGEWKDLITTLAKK
# HeLa = experiment: HeLa cell cytotoxicity, dose response, cytotoxicity control for MITF activator project, CellTiter-Glo luminescence, cherry-pick samples (AID 540259); format: functional, cell-based; details: Homo sapiens
# Streptokinase A = target: T8, Streptokinase A (Streptococcus pyogenes serotype M1, UniProt P10520); experiment: S. pyogenes streptokinase expression inhibitors, potency, dose response, plasminogen activation absorbance, OD405 (AID 1914); format: functional, Streptococcus pyogenes M1 GAS;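 also: secreted streptokinase activity via plasminogen activation per viability signal from cell pellet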
# T8 sequence (P10520 whole entry): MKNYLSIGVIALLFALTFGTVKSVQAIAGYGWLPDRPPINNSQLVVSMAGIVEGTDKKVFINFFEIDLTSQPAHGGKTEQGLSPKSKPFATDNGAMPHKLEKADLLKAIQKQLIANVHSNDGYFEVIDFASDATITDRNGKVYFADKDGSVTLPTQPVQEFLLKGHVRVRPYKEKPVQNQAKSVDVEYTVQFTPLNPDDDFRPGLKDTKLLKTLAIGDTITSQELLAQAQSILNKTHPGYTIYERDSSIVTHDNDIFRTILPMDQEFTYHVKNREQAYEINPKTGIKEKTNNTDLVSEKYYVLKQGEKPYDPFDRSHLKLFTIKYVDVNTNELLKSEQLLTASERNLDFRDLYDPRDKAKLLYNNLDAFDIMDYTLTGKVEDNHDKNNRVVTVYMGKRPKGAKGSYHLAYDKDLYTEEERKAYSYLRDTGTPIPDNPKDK
# Sequence of 5-hydroxytryptamine receptor 5A (P47898 whole entry): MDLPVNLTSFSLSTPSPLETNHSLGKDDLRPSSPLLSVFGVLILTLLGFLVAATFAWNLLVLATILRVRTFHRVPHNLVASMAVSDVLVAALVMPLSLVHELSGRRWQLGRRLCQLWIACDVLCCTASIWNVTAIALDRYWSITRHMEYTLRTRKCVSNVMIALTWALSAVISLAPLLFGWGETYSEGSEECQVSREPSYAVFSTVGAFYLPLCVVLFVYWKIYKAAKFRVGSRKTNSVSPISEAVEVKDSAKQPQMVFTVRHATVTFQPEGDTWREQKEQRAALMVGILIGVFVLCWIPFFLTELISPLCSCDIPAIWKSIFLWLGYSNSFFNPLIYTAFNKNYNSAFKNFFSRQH
# Sequence of Phospholipase A2 (P04054 whole entry): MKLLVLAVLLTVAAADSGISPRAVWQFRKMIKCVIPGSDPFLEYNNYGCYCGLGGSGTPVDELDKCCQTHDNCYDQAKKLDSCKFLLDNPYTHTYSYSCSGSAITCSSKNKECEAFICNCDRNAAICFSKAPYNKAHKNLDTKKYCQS
# Sequence of Mu-type opioid receptor (P35372 whole entry): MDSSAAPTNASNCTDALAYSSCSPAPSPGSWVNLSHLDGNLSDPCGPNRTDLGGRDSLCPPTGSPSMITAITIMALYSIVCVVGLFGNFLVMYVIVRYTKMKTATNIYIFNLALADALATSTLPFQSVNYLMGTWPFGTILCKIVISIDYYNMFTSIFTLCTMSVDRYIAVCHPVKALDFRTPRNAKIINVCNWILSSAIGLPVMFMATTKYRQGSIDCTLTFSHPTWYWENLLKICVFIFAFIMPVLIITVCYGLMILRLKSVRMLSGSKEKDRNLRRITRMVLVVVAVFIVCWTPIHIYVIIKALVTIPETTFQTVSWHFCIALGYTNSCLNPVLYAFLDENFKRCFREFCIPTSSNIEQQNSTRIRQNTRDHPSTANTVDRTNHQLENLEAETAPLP
# Sequence of Delta-type opioid receptor (P41143 whole entry): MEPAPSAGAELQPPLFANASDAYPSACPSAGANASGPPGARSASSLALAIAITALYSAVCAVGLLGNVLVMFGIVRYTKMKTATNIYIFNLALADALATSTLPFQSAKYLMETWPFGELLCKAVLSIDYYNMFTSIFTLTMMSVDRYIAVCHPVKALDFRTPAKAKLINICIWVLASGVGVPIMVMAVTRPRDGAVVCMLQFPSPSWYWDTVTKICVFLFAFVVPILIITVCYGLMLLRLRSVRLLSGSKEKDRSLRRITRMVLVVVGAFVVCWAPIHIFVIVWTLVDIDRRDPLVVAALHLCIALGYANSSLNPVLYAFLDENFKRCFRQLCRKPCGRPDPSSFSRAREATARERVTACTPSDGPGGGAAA
smiles,measurement,setting,value
CS(=O)(=O)N1CCc2ccc(NC(=O)C3CCCO3)cc2C1 (centres undefined),IC50,[1],> 79.4 µM (inactive)
same,IC50,[2],> 79.4 µM (inactive)
same,IC50,[3],> 79.4 µM (inactive)
O=C(C1CCN(c2ncnc3c2nc2n3CCCCC2)CC1)N1CCN(c2cccc(Cl)c2)CC1,IC50,Phospholipase A2,11.1 µM (active)
same,IC50,Cysteine protease ATG4B,22.6 µM (inactive)
CN(C)C(CNC(=O)c1cc2ccccc2o1)c1ccco1 (centres undefined),EC50,[4],> 92.5 µM (inactive)
same,EC50,Mu-type opioid receptor,> 92.5 µM (inactive)
same,EC50,[5],> 92.5 µM (inactive)
Cc1csc2nc(CSc3nc4ccccc4o3)c(Br)n12,IC50,[6],16.2 µM (active)
same,IC50,[7],12.5 µM (active)
same,EC50,[8],45.5 µM (active)
same,EC50,Streptococcus,> 150 µM (not active)
same,IC50,Caspase-3,49.4 µM (active)
same,IC50,[9],> 100 µM (inactive)
same,AC50,HeLa,42.3 µM (active)
same,EC50,Streptokinase A,> 150 µM (not active)
COC(=O)N/N=C(\C)c1ccc2ccccc2c1OC(F)F,IC50,[1],> 79.4 µM (inactive)
same,IC50,[2],> 79.4 µM (inactive)
same,IC50,[3],> 79.4 µM (inactive)
